Source: article PMC6657668, “Porcine Beta-Defensin 2 Provides Protection Against Bacterial Infection by a Direct Bactericidal Activity and Alleviates Inflammation via Interference With the TLR4/NF-κB Pathway” (Frontiers in Immunology, 2019)
Where a SMILES comes first, the peptide text is derived from it.

Target: T1, TLR4 (Mus musculus, UniProt Q9QUK6)
T1 construct: purchased Cloud-clone, Wuhan, China RPA753Mu01
Test: Interaction with TLR4, far-Western blot
Type: binding
Conditions: PBD-2 10 μg/ml, 37°C, 2 h
Description: TLR4 and BSA proteins as a control were subject to SDS-PAGE and electro-transferred onto a PVDF membrane. The PVDF membrane was blocked with 10 μg/ml BSA in PBST at 37°C for 2 h, washed five times with PBST and incubated with PBST that contained 10 μg/ml PBD-2 or 10 μg/ml BSA as a control at 37°C for 2 h. After the membranes were washed, the PVDF membrane was incubated with anti-PBD-2 antisera (with a titer 1:500,000) at 37°C for 2 h and washed five times with PBST. The membrane was then incubated with the secondary antibodies, namely, goat anti-mouse IgG (# AS003, ABclonal®, Wuhan, China), at 37°C for 2 h and washed five times with PBST. Lastly, immune-reactive bands were detected using an ECF Western blot system (Tanon 5200 Multi, Shanghai, China).

T1 sequence (Q9QUK6 26-835): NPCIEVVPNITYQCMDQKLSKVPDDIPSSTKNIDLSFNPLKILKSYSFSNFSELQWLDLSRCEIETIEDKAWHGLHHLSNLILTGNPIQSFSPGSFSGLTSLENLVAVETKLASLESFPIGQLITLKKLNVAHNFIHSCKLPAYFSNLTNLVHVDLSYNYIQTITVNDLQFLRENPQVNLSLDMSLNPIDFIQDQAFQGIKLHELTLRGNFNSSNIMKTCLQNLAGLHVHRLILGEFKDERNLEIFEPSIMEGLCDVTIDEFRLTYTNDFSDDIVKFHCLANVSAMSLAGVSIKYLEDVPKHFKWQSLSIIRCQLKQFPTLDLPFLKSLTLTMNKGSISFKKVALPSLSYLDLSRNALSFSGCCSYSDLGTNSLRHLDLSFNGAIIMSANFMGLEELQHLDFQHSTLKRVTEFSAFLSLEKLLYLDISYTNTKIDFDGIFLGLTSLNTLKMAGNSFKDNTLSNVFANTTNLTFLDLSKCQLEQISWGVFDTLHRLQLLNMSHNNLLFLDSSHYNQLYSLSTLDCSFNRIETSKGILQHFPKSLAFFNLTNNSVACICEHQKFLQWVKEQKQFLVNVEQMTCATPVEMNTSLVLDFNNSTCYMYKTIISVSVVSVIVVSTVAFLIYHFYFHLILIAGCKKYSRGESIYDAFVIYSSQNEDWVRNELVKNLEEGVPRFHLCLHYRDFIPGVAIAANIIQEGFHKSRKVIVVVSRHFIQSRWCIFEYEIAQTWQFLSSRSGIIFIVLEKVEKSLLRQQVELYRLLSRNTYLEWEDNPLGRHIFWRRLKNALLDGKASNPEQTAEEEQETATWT

With `CC[C@H](C)[C@H](NC(=O)[C@@H]1CSSC[C@@H]2NC(=O)[C@@H]3CCCN3C(=O)[C@H](CO)NC(=O)[C@H](Cc3ccccc3)NC(=O)[C@H](CC(N)=O)NC(=O)[C@@H]3CSSC[C@H](NC(=O)[C@H]([C@@H](C)O)NC(=O)CNC(=O)[C@H](CCC(=O)O)NC(=O)[C@H]([C@@H](C)CC)NC(=O)[C@H](CCCNC(=N)N)NC(=O)[C@H](CC(N)=O)NC(=O)[C@H](Cc4ccccc4)NC(=O)[C@H](CC(C)C)NC(=O)[C@@H]4CCCN4C2=O)C(=O)N[C@@H](Cc2ccc(O)cc2)C(=O)N[C@@H](CO)C(=O)NCC(=O)N[C@@H](CCCCN)C(=O)N[C@@H](C)C(=O)N[C@@H](CCCCN)C(=O)N[C@@H](CSSC[C@H](NC(=O)[C@@H](NC(=O)[C@H](Cc2ccc(O)cc2)NC(=O)[C@H](Cc2c[nH]cn2)NC(=O)[C@@H](N)CC(=O)O)[C@@H](C)CC)C(=O)N[C@@H](C)C(=O)N[C@@H](CCCCN)C(=O)N[C@@H](CCCCN)C(=O)NCC(=O)NCC(=O)N[C@@H]([C@@H](C)O)C(=O)N3)C(=O)N1)C(=O)N[C@@H](CCCNC(=N)N)C(=O)O` [PBD-2, Porcine beta-defensin 2] (HELM PEPTIDE1{D.H.Y.I.C.A.K.K.G.G.T.C.N.F.S.P.C.P.L.F.N.R.I.E.G.T.C.Y.S.G.K.A.K.C.C.I.R}$PEPTIDE1,PEPTIDE1,5:R3-34:R3|PEPTIDE1,PEPTIDE1,12:R3-27:R3|PEPTIDE1,PEPTIDE1,17:R3-35:R3$$$V2.0; N-terminus and C-terminus assumed) the “binding to TLR4 on PVDF membrane” value was “could bind to TLR4”.
